Experimental data taken from BindingDB's records for doi:10.1021/jm070336k (University of Mississippi, 2007).

Columns and labels:
[1] = molecular target: L-lactate dehydrogenase B chain (Bos taurus, UniProt Q5E9B1); test: Lactate Dehydrogenase Inhibition Assay; conditions: pH 7; 25 °C
[2] = molecular target: L-lactate dehydrogenase (Plasmodium falciparum (isolate CDC / Honduras), UniProt Q27743); test: Lactate Dehydrogenase Inhibition Assay; conditions: pH 7; 25 °C
Chain of L-lactate dehydrogenase (Q27743 whole entry): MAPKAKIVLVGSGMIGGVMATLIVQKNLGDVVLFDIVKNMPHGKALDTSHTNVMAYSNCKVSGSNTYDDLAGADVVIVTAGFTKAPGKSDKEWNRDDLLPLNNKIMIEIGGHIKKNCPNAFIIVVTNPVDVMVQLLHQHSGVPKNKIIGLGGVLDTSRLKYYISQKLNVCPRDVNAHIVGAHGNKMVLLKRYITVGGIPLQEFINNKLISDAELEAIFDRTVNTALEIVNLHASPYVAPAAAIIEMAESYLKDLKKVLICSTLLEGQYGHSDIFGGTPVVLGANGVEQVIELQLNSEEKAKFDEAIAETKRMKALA

Chain of L-lactate dehydrogenase B chain (Q5E9B1 whole entry): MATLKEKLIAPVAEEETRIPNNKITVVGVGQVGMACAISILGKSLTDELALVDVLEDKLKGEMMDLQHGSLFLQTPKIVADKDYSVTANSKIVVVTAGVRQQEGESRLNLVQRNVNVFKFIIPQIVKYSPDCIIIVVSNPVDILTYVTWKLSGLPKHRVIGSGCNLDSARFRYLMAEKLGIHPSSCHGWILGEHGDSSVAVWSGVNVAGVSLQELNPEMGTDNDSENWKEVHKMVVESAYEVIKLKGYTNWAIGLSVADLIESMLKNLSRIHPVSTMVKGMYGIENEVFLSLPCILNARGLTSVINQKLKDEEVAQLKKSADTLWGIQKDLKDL

Row | Compound | IC50 [1] | IC50 [2]
1 | COc1cc(CCOc2cc(O)c3c(=O)cc(C(=O)O)oc3c2)ccc1NC(=O)C(=O)O [7-{2-[4-(formamidoformic acid)-3-methoxyphenyl]ethoxy}-5-hydroxy-4-oxo-4H-chromene-2-carboxylic acid] | > 225 µM | –
2 | O=C(O)C(=O)Nc1ccc(CCOc2cc(O)c3c(=O)cc(C(=O)O)oc3c2)cc1 [7-{2-[4-(formamidoformic acid)phenyl]ethoxy}-5-hydroxy-4-oxo-4H-chromene-2-carboxylic acid] | > 241 µM | > 241 µM
3 | COc1cc(COc2cc(O)c3c(=O)cc(C(=O)O)oc3c2)ccc1NC(=O)C(=O)O [7-{[4-(formamidoformic acid)-3-methoxyphenyl]methoxy}-5-hydroxy-4-oxo-4H-chromene-2-carboxylic acid] | > 232 µM | –

More lines, now with the values ahead:

Row | IC50 [1] | IC50 [2] | Compound
4 | > 179 µM | – | COc1ccc(CNC(=O)c2cc(=O)c3c(O)cc(OCCc4ccc(NC(=O)C(=O)O)c(C#N)c4)cc3o2)cc1 [[(2-cyano-4-{2-[(5-hydroxy-2-{[(4-methoxyphenyl)methyl]carbamoyl}-4-oxo-4H-chromen-7-yl)oxy]ethyl}phenyl)carbamoyl]formic acid]
5 | > 187 µM | – | COc1ccc(CNC(=O)c2cc(=O)c3c(O)cc(OCCc4ccc(NC(=O)C(=O)O)cc4)cc3o2)cc1 [[(4-{2-[(5-hydroxy-2-{[(4-methoxyphenyl)methyl]carbamoyl}-4-oxo-4H-chromen-7-yl)oxy]ethyl}phenyl)carbamoyl]formic acid]
